Measured values: patent publication US6759397B2, “Ginsenoside chemotherapy” (The University of British Columbia, priority 2000, dated 2004)
Like-named read-outs stand apart in the source and are kept apart here.

What was measured:
MDA435/LCC6W cells = assay: Viable cell count, Rh2 with paclitaxel, wild-type breast cancer cells; assay type: cell-based; conditions: Homo sapiens, L6W (wild-type MDA435/LCC6W)
Protocol: (§1) Human breast cancer cells MDA435/LCC6 cells, both wild-type (MDA435/LCC6W) or a drug resistant strain expressing a transfected multidrug resistant gene encoding P-glycoprotein (MDA435/LCC6M), were incubated with 20 μg/ml or 30 μg/ml of Rh2 in the presence of paclitaxel at various concentrations. Viable cells were counted 24 hrs after treatment.

MDA435/LCC6M cells [1] = assay: Viable cell count, Rh2 with paclitaxel, multidrug resistant breast cancer cells expressing P-glycoprotein; conditions: for IC50: Homo sapiens, MDA435, 24 h
Protocol: as §1

MDA435/LCC6M cells [2] = test system: MDA435/LCC6M cells
Protocol: as §1

[3] = test system: Mesothelioma cells (MS-1 cells); assay: Viability of non-Pgp multidrug resistant mesothelioma cells, Rh2 with cisplatin or paclitaxel; assay type: cell-based
[4] = test system: human prostate cancer cells LNCaP; assay: Cytotoxicity of Rh2 with mitoxantrone or paclitaxel, cellular viability of LNCaP cells; assay type: cell-based
Source text: In one aspect, the invention provides therapeutically synergistic effects of Rh2 with chemotherapeutic compounds.

| Compound | IC50 (MDA435/LCC6W cells; no Rh2, viable cells counted 24 hrs after treatment, read-out: Calculated IC50 of paclitaxel, Paclitaxel alone) [nM] | IC50 (MDA435/LCC6W cells; with 20 μg/ml Rh2, 24 hrs, read-out: Calculated IC50 of paclitaxel, Pac. + 20 μg/ml Rh2) [nM] | IC50 (MDA435/LCC6W cells; with 30 μg/ml Rh2, 24 hrs, read-out: Calculated IC50 of paclitaxel, Pac. + 30 μg/ml Rh2) [nM] | IC50 (MDA435/LCC6M cells [1]; read-out: Calculated IC50 of paclitaxel, Pac. + 20 μg/ml Rh2) [nM] | IC50 (MDA435/LCC6M cells [1]; read-out: Calculated IC50 of paclitaxel, Pac. + 30 μg/ml Rh2) [nM] | IC50 (MDA435/LCC6M cells [1]; read-out: Calculated IC50 of paclitaxel, Paclitaxel alone) [nM] | Paclitaxel concentration at which cytotoxicity was shown in the presence of Rh2 (MDA435/LCC6M cells [1]; MDA435/LCC6M, with Rh2, as low as) [nM] | Effect of Rh2 alone on the cells (MDA435/LCC6M cells [1]; MDA435/LCC6M, 20 or 30 μg/ml Rh2, 24 hrs) | Effect of Rh2 on cytotoxicity of paclitaxel (MDA435/LCC6M cells [2]) | Synergistic effect of Rh2 with cisplatin ([3]; 20 μg/ml Rh2, various cisplatin concentrations) | Synergistic effect of Rh2 with paclitaxel ([3]; 20 μg/ml Rh2, various paclitaxel concentrations) | Cytotoxicity of Rh2 alone ([4]; 20 μg/ml Rh2, LNCaP) | Effect of Rh2 on cytotoxicity of paclitaxel ([4]; 20 μg/ml Rh2, particularly 0.1 nM and 1 nM paclitaxel, LNCaP) | Effect of Rh2 on cytotoxicity of mitoxantrone ([4]; 20 μg/ml Rh2, wide range of mitoxantrone concentrations, LNCaP) |
| --- | --- | --- | --- | --- | --- | --- | --- | --- | --- | --- | --- | --- | --- | --- |
| CC(=O)O[C@H]1C(=O)[C@@]2(C)[C@H]([C@H](OC(=O)c3ccccc3)[C@]3(O)C[C@H](OC(=O)[C@H](O)[C@@H](NC(=O)c4ccccc4)c4ccccc4)C(C)=C1C3(C)C)[C@]1(OC(C)=O)CO[C@@H]1C[C@@H]2O [Paclitaxel] | 248 | 75 | 25 | 0.15 | < 0.03 | 631 | 0.1 |  |  |  |  |  |  |  |
| CC(C)=CCC[C@](C)(O)[C@H]1CC[C@]2(C)[C@@H]1[C@H](O)C[C@@H]1[C@@]3(C)CC[C@H](O[C@@H]4O[C@H](CO)[C@@H](O)[C@H](O)[C@H]4O)C(C)(C)[C@@H]3CC[C@]12C [Rh2] |  |  |  |  |  |  |  | little or no effect on the cells | unexpectedly and significantly enhanced by Rh2 | significant | significant | little or no significant cytotoxicity alone | added significantly to the cytotoxicity of paclitaxel | added significantly to the cytotoxicity of mitoxatron |
